These results are taken from PMC13128454, “Mutant p53 protein accumulation is selectively targetable by proximity-inducing drugs” (Nature Chemical Biology, 2025).

Each structure is given as a SMILES string. pKd: −log10 of the molar value.

In one experiment the target is p53-Y220C. As to conditions: cited from earlier work.
Another experiment deals with NUGC-3 cells. Put plainly: CellTiter-Glo cell viability. As to conditions: NUGC3. The format is cell-based. The arrangement: AUC_rezatapopt: unit not given beside the values. The procedure:
(§1) Cells were plated in 384-well plates (typically 1,500 cells per well) with varying concentrations of compounds, with a total volume of 50 μl per well. CTG reagent was added (25 μl) to the solutions, mixed and read out using an EnVision 2105 multimode plate reader.

The next experiment has as its system DU145 cells. Put plainly: CellTiter-Glo cell viability. The format is cell-based. Set-up: AUC_rezatapopt: unit not given beside the values. As for the experimental part: as §1
Another experiment deals with MCF7 cells. Put plainly: CellTiter-Glo cell viability. The arrangement: AUC_rezatapopt: unit not given beside the values. The format is cell-based. The procedure: as §1
For orientation: In ATP-based viability assays light output follows the ATP content of the culture.

The next experiment has as its system MFE296 cells. Put plainly: CellTiter-Glo cell viability. The experiment is classed as cell-based. The arrangement: AUC_rezatapopt: unit not given beside the values. The procedure: as §1
The next experiment concerns Huh7 cells. Kind of experiment: CellTiter-Glo cell viability. The arrangement: AUC_rezatapopt: unit not given beside the values. The format is cell-based. As for the experimental part:
as §1

The next experiment deals with LNCaP cells. Kind of experiment: CellTiter-Glo cell viability. Set-up: AUC_rezatapopt: unit not given beside the values. The format is cell-based. Conditions: LNCaP. The procedure:
as §1

In another experiment the test system is HepG2 cells. Kind of experiment: CellTiter-Glo cell viability. The format is cell-based. Set-up: AUC_rezatapopt: unit not given beside the values. As for the experimental part:
as §1

Another experiment deals with MFE319 cells. Kind of experiment: CellTiter-Glo cell viability. The format is cell-based. Conditions: MFE319. Set-up: p5301_AUC_to_10uM / AUC_rezatapopt: scale not given here. As for the experimental part:
as §1

One may read the pKd as the Kd on a negative log10 scale, so that one unit is a factor of ten. Consider `CNC(=O)c1ccc(NCC#Cc2cc3c(N[C@@H]4CCN(C)C[C@@H]4F)cccc3n2CC(F)(F)F)c(OC)c1` [rezatapopt], for which the pKd at p53-Y220C was approximately 8.60. The AUC_rezatapopt was 0.5908 with NUGC-3 cells; 1 in the experiment with DU145 cells; 0.9331 with MCF7 cells; 0.5683 with MFE296 cells; 0.6525 in the experiment with Huh7 cells; 0.9713 in the experiment with LNCaP cells. The AUC_rezatapopt in the experiment on HepG2 cells is given as 0.9433; in the experiment with MFE319 cells it was 0.8525.
